Consider four compounds from ChEMBL document CHEMBL1201862, “PubChem BioAssay data set” (2004).

SMILES strings stand for the structures. Calls of active or inactive are those of the source. Cut-off read from the data, not from the text of the source, for most assays here: actives have a measured IC50 and inactives only a lower limit. Bounds are passed on as bounds.

The target in test [1] is T1, Histone-lysine N-methyltransferase NSD2 (Homo sapiens, UniProt O96028).
T1 sequence (O96028 whole entry): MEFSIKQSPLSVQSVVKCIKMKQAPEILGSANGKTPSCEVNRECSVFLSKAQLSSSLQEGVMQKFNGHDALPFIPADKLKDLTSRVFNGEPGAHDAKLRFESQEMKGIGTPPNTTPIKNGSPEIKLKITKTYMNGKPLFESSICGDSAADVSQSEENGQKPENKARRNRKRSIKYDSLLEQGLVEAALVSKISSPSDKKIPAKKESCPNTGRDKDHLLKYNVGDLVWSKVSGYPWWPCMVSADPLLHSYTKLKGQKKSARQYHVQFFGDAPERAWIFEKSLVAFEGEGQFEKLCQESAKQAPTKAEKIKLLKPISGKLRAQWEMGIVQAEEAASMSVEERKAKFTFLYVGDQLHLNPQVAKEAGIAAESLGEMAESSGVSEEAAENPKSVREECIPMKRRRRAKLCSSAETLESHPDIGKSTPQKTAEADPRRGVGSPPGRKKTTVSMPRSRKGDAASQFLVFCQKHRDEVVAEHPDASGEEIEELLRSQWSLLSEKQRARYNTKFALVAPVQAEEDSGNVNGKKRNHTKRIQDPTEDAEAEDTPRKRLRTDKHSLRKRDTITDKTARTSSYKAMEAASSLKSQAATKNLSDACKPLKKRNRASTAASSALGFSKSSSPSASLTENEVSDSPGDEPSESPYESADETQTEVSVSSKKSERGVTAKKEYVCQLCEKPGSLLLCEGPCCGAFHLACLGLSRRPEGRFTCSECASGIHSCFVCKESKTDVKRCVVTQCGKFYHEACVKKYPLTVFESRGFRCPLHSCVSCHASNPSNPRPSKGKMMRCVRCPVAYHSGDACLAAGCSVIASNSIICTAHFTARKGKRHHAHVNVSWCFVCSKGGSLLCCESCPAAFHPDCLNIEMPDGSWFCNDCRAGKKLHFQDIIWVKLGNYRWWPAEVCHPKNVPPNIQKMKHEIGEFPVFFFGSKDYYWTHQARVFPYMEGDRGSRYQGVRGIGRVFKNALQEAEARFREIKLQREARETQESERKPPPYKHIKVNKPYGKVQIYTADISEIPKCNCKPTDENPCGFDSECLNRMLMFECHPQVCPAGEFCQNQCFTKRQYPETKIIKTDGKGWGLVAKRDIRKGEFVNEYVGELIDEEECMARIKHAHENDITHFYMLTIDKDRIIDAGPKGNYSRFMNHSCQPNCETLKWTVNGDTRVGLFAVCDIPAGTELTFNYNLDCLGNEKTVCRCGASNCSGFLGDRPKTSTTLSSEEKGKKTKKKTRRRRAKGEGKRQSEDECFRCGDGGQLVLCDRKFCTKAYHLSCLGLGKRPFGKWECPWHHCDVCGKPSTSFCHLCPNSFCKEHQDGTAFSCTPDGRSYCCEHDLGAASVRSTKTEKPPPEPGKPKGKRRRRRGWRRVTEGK
The class given is biochemical.

The target in test [2] is T2, Apoptotic protease-activating factor 1 (Homo sapiens, UniProt O14727).
T2 sequence (O14727 whole entry): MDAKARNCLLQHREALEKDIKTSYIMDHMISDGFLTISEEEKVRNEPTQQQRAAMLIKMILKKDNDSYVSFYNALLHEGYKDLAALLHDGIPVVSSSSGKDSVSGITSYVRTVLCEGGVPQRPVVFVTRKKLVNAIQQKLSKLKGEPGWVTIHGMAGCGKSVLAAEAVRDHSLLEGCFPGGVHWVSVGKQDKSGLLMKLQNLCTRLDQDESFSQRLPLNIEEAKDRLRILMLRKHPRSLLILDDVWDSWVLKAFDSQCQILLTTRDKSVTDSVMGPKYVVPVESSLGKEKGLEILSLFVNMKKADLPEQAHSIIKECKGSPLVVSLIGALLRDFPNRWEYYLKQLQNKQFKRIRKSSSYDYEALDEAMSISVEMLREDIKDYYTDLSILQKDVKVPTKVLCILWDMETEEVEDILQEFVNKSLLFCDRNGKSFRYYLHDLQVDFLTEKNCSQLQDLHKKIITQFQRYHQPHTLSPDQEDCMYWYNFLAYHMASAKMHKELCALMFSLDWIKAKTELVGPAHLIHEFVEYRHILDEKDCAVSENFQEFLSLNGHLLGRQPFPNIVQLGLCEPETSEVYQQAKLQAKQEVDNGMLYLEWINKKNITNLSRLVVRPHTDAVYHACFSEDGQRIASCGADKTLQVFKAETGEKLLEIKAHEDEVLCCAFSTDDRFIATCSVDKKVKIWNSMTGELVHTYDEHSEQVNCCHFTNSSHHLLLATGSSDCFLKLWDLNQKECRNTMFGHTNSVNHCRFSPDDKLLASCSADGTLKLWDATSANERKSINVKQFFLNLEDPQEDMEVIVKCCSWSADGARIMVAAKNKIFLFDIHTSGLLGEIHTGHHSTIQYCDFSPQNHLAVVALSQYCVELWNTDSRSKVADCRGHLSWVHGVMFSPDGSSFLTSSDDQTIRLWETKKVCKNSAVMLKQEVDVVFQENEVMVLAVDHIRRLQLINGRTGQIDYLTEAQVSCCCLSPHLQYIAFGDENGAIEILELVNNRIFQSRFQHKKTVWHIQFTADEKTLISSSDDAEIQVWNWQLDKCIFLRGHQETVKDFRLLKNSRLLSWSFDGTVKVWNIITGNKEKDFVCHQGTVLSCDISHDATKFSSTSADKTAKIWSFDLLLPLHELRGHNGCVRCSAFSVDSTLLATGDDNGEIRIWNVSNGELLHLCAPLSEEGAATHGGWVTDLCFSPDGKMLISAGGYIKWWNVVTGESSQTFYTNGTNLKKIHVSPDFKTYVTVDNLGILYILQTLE
The test is classed as functional.

In test [3] the target is T3, Sentrin-specific protease 8 (Homo sapiens, UniProt Q96LD8).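 Note: luminescence read-out of SENP8 inhibition, dose-response confirmation following an ultra-high-throughput screen.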
T3 sequence (Q96LD8 whole entry): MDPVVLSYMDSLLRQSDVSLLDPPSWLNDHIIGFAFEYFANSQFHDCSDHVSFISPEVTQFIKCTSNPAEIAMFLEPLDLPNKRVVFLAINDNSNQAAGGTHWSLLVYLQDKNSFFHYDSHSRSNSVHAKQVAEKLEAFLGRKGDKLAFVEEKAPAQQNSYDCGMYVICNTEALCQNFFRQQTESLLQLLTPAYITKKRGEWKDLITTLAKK
The class given is functional.

A further test has as its target T4, Caspase-3 (Homo sapiens, UniProt P42574).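 Note: Dose-response selectivity test against caspase-3 for candidate inhibitors of sentrin-specific proteases (SENPs).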
T4 sequence (P42574 whole entry): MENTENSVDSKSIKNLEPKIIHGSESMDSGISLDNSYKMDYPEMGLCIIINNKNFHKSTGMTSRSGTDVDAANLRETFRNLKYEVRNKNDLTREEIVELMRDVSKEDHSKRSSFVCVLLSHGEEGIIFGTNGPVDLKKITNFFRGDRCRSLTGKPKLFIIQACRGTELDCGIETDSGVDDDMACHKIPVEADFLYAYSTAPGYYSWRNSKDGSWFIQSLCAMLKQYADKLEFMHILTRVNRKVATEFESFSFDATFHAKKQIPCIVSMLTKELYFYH
The class given is functional.

As a reminder, the AC50 is the concentration at which the activity in the assay is half-maximal. The IC50 is the concentration at which inhibition is half-maximal. `O=C(NC1(O)C(=O)c2ccccc2C1=O)c1ccc(C(F)(F)F)cc1`: the AC50 in test [1] was 3.39 µM (active). Besides, the IC50 in test [2] is 2.97 µM (active); in test [3], 4.9 µM (active); at Caspase-3, 94.5 µM (active).
In the same order, the values of `O=C(NC1(O)C(=O)c2ccccc2C1=O)c1c(Cl)cccc1Cl` are 3.16 µM (active), 2.7 µM (active), 4.78 µM (active) and > 100 µM (inactive).
Turning to `CCN(c1ccccc1)c1cc2ccccc2c(=O)[nH]1`, the results for the IC50 (in test [2]; in test [3]; on Caspase-3) were 18.7 µM (active), 3.73 µM (active) and 2.69 µM (active), respectively.
`O=C(COC(=O)c1ccc([N+](=O)[O-])s1)Nc1ncc(C(F)(F)F)cc1Cl`: the concentration at half-maximal activity (AC50) in test [1] was 12.5 µM (active). Further, the IC50 in test [3] was 4.83 µM (active); at Caspase-3, 10 µM (active).
